A short description of data set [1]: metabolic conversion of INO2 BA to INH2 BA by 855-2 cells. The data set is classed as in vitro ADME. The following applies: 855-2 cells; 120 μM INO2 BA, 37° C.; read-out: rate of reduction of the nitro to the amino end-product. How it is done:
(§1) The cell metabolites of INO2 BA metabolism were identified. A suspension of 855-2 cells (6), 150×10^6 cells in ml of RPMI-1640 medium, was dosed with INO2 BA to a concentration of 120 μM, incubated at 37° C. for 18 hr, and then freeze-dried, extracted 3 times with EtOH (10 ml each time) for 30 min and centrifuged. The extract was rotary evaporated to dryness, redissolved in EtOH (3.0 ml), microfuged to remove small particles, and aliquots (200 μl) injected into HPLC. In control experiments, instead of incubating the drug-dosed cell suspension it was immediately frozen, freeze-dried and extracted. HPLC analyses were performed essentially as reported earlier, except the pH of the buffers was 4.3. Buki et al., FEBS Lett. 290:181-185 (1991). Upon sample injection the gradient started from 100%A to 100%B in 30 min, to 50%B/50%C in 15 min, to 100%C in 3 min. Retention times of synthetic standards were: 4-iodo-3-hydroxylaminobenzamide 18.7 min; 4-iodo-3-aminobenzamide ("INH2 BA") 24.7 min; INO2 BA 34.5 min; INOBA 36.5 min and 6,6'-diiodo-3,3'-dicarbamoylazoxybenzene 46.9 min.

A further data set deals with 855-2 cells. The description is as above. The data set is classed as in vitro ADME. The following applies: 120 μM INO2 BA, 18 hr, 37° C. Here is the method:
as §1

For data set [2], the system named is SIV-infected CEM ×174 cells. Put plainly: viability of SIV-infected CEM ×174 cells, tetrazolium (MTT) assay. The data set is classed as cell-based, human. The following applies: day 10. The text has this:
In both (A) and (B) the ordinate represents cell viability on day 10 of the assay and the abscissa represents the concentration of INO2 BA in the absence of BSO (FIG. 4A), and in the presence of BSO (FIG. 4B).
CEM ×174 cells (3×10^5 /ml) were infected with 3.75 TCID50 /ml (50% tissue culture infectious dosage per ml of cell suspension) stock solution of SIVmac239 or virus isolates from SIVmac239-infected rhesus macaques on day 0. Uniform infection of cells was ensured by the infection of one cell population only per virus preparation. Three days post-infection, the cells were distributed (500 μl/well) into individual wells of a 24-well plate. Fresh medium containing INO2 BA concentrations ranging from 0 to 300 μM and/or BSO concentrations ranging from 0 to 0.25 mM were added to establish final 1-ml reaction volumes, and the cultures were further incubated for 4 days. […] Cell viability and virus titers in the supernatant were determined on day 10 (3 days after the addition of new cells) by the tetrazolium (MTT) method of Hansen et al., J. Immunol. […]
The viability of infected and uninfected cell cultures was determined by the method of Hansen et al., J. Immunol. […] Following overnight incubation at 37° C., optical absorbance were measured at 570 nm using a microtiter plate reader (Molecular Devices Corp., Sunnyvale, Calif.).

A further data set deals with MCF-7-B-ADR. Put plainly: cytotoxicity of INO2 BA with and without BSO, MCF-7-B-ADR. The class given is cell-based. The following applies: Homo sapiens. How it is done: (§2) The concentration of BSO was 1 mM for all cell lines except HT 144, where the concentration was 0.25 mM. Cells were seeded in the recommended growth medium at a density of 1.5×10^4 cell/cm^2 into 2 cm^2 wells. Drugs were added simultaneously 4 hours after seeding, and incubation was continued for 48 hours at 37° C. in a 5% CO2 atmosphere. For assessment of drug effects cells were detached by trypsinization and counted in a hemacytometer.
(§3) Cell lines Nos. 1-4 were obtained from Dr. C. Benz, University of California, San Francisco. MDA 468 and MCF-7 human mammary cancer lines, MCF-7-B-ADR drug-resistant mammary cancer line, Du 145 drug-resistant human prostate cancer line, HT 144 human melanoma cell line, Hep-G2 human hepatocellular carcinoma line, and PC-12 rat pheochromocytoma line were obtained from the University of California Cell Culture Facility.

In a further data set the test system is U 937. Put plainly: cytotoxicity of INO2 BA with and without BSO, U 937. The data set is classed as cell-based. The following applies: Homo sapiens, INO2 BA alone, 48 hours. How it is done: as §2, §3
The subject of the next data set is MCF-7. As to the kind of experiment: cytotoxicity of INO2 BA with and without BSO, MCF-7. The class given is cell-based. The conditions noted are these: Homo sapiens. Here is the method:
as §2, §3

The next data set concerns MDA-468. As to the kind of experiment: cytotoxicity of INO2 BA with and without BSO, MDA-468. The data set is classed as cell-based. The following applies: Homo sapiens. Here is the method: as §2, §3
Data set [3] relates to SIVmac239 or virus isolates in CEM ×174 cells. Put plainly: SIV replication in CEM ×174 cells, SIV p27 core antigen assay. The class given is cell-based. The text has this: Infected cell cultures described in FIG. 4 were used for determination of supernatant virus titers by SIV p27 core antigen assay as described in Example XIV. The ordinate represents p27 ELISA performed on day 10 of the assay and the abscissa represents the concentration of INO2 BA alone (rear rows in panels A, B and C) and in combination with BSO (front rows in panels A, B and C).
CEM ×174 cells (3×10^5 /ml) were infected with 3.75 TCID50 /ml (50% tissue culture infectious dosage per ml of cell suspension) stock solution of SIVmac239 or virus isolates from SIVmac239-infected rhesus macaques on day 0. Uniform infection of cells was ensured by the infection of one cell population only per virus preparation. Three days post-infection, the cells were distributed (500 μl/well) into individual wells of a 24-well plate. Fresh medium containing INO2 BA concentrations ranging from 0 to 300 μM and/or BSO concentrations ranging from 0 to 0.25 mM were added to establish final 1-ml reaction volumes, and the cultures were further incubated for 4 days. The wells were then replenished with fresh CEM ×174 cells (3×10^5 /ml), INO2 BA and/or BSO were re-added at the same concentrations as in the original incubates, and incubation was continued for an additional 3 days. This procedure intends to mimic conditions of in vivo chemotherapy. Cell viability and virus titers in the supernatant were determined on day 10 (3 days after the addition of new cells) by the tetrazolium (MTT) method of Hansen et al., J. Immunol. Methods 119:208-210 (1982) and by the SIV p27 and reverse transcriptase (RT) assays described by Chuang et al., FEBS Lett. 326:140-144 (1993), respectively.
SIVmac p27 core antigen levels were determined by an enzyme immunoassay provided by Coulter Corp. (Hialeah, Fla.). The assay was performed according to the manufacturer's specifications.

Another data set relates to Du 145. Put plainly: cytotoxicity of INO2 BA with and without BSO, Du 145. The class given is cell-based. The conditions noted are these: Homo sapiens. Here is the method: as §2, §3
Data set [4] deals with AZT-resistant rhesus macaque (MMU-23740)-derived SIV. The conditions noted are these: cited from earlier work.
Data set [5] deals with L-1210 Murine Leukemia Cells. Put plainly: effect of nitroso- and nitro-compounds in L-1210 murine leukemia cells (suspension). The following applies: drug exposure 18 hours. The data set is classed as cell-based. Here is the method: II. I50 and LD100 Values for Nitroso- and Nitro-Compounds in (A) Mammary Cancer Cells (monolayer cultures) and in (B) L-1210 Murine Leukemia Cells (suspension culture).
Cells were seeded at 5×10^4 to 2×10^5 /ml; drugs were added at the time of seeding; drug exposure was for 18 hours.

Setting [6] is: INO2 BA alone, 48 hours, read-out: I50.

As to `NC(=O)c1ccc(I)c([N+](=O)[O-])c1` [INO2 BA, 4-iodo-3-nitrobenzamide], in data set [1], the metabolised at 18 h, 120 µM worked out at 2.2 ± 0.2%. Besides, in the data set on 855-2 cells, the identified metabolite entry is recorded as “the only identified metabolite was INH2 BA”. Also, the apparent cell viability result in data set [2] is “protected”. Also, the IC100 in the data set with MCF-7-B-ADR (48 h, read-out: LD100) is 220 µM; in the data set on U 937 (read-out: LD100), 150 µM; with MCF-7 (MCF7, 48 h, read-out: LD100) it was 200 µM; in the data set on MDA-468 (48 h, read-out: LD100) it was 180 µM; in the data set with Du 145 (DU-145, 48 h, read-out: LD100), 250 µM. The IC50 in the data set with MCF-7-B-ADR (setting [6]) was found to be 90 µM; in the data set with U 937 (read-out: I50) it was 65 µM; in the data set on MCF-7 (MCF7, INO2 BA alone, 48 hours, read-out: I50) it was 100 µM; in the data set with MDA-468 (setting [6]), 80 µM; in the data set with Du 145 (DU-145, INO2 BA alone, 48 hours, read-out: I50) it was 120 µM. Besides, the “SIV p27 formation” value in data set [3] (INO2 BA alone, FIG. 5A-C) is reported as “almost complete inhibition”. Further, in data set [3] (with BSO, CEM ×174 cells), the “effect of GSH depletion by BSO on inhibitory effect on SIV replication” value is given as “synergistically enhances”.
As to `NC(=O)c1cccc(N=O)c1` [NOBA, 3-nitrosobenzamide], the “inhibition of infectious cycle” value in data set [4] is reported as “equally inhibited”. In data set [5], this compound had an I50 of 7.5 nanomoles/10^5 cells and an LD100 of 15 nanomoles/10^5 cells.

The values are drawn from patent US5877185A, “Synergistic compositions useful as anti-tumor agents” (priority 1995, dated 1999).
